Results from patent US10645928B2, “Pesticidally active polycyclic derivatives with sulfur containing substituents” (Syngenta Participations AG, priority 2014, dated 2020).

Experiments:
Type in all cases: in vivo
[1] = system: Bemisia tabaci (Cotton White Fly); assay: Example B1: Bemisia tabaci, sprayed cotton leaf discs, mortality; conditions: foliar, 144 h, application rate of 200 ppm, adult white flies, 6 days after incubation
Experimental: Cotton leaf discs were placed on agar in 24-well microtiter plates and sprayed with aqueous test solutions prepared from 10,000 ppm DMSO stock solutions. After drying the leaf discs were infested with adult white flies. The samples were checked for mortality 6 days after incubation.

[2] = system: Euschistus heros (Neotropical Brown Stink Bug); assay: Example B5: Euschistus heros, sprayed soybean leaves, mortality; conditions: 120 h, application rate of 200 ppm, N2 nymphs, 5 days after infestation
Experimental: (§1) Soybean leaves on agar in 24-well microtiter plates were sprayed with aqueous test solutions prepared from 10,000 ppm DMSO stock solutions. After drying the leaves were infested with N2 nymphs. The samples were assessed for mortality 5 days after infestation.

[3] = system: Plutella xylostella (Diamond Back Moth); assay: Example B12: Plutella xylostella, treated artificial diet, mortality; conditions: 120 h, application rate of 200 ppm, L2 larvae, 5 days after infestation
Experimental: 24-well microtiter plates with artificial diet were treated with aqueous test solutions prepared from 10,000 ppm DMSO stock solutions by pipetting. After drying, the plates were infested with L2 larvae (10 to 15 per well). The samples were assessed for mortality 5 days after infestation.

[4] = system: Spodoptera littoralis (Egyptian Cotton Leaf Worm); assay: Example B16: Spodoptera littoralis, sprayed cotton leaf discs, mortality; conditions: foliar, 72 h, application rate of 200 ppm, L1 larvae, 3 days after infestation
Experimental: Cotton leaf discs were placed onto agar in 24-well microtiter plates and sprayed with aqueous test solutions prepared from 10,000 ppm DMSO stock solutions. After drying the leaf discs were infested with five L1 larvae. The samples were assessed for mortality 3 days after infestation.

[5] = system: Spodoptera littoralis (Egyptian Cotton Leaf Worm); assay: Example B17: Spodoptera littoralis, sprayed cotton leaf discs, mortality, anti-feeding effect and growth inhibition; conditions: foliar, 72 h, application rate of 200 ppm, L1 larvae, 3 days after infestation, read-out: control (at least one of mortality, anti-feedant effect, growth inhibition)
Method in brief: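 Cotton leaf discs on agar sprayed with aqueous dilutions of 10,000 ppm DMSO stocks, dried, then infested with five L1 larvae. Mortality, anti-feeding and growth inhibition scored against untreated discs 3 days after infestation. Control recorded when any one category exceeds the untreated sample.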

[6] = system: Spodoptera littoralis (Egyptian Cotton Leaf Worm); assay: Example B20: Spodoptera littoralis, compound in agar absorbed by lettuce roots, mortality; conditions: 144 h, test rate of 12.5 ppm, uptake by lettuce roots, Spodoptera eggs, 6 days after infestation
Method in brief: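 Compound from a 10,000 ppm DMSO stock mixed into agar; lettuce grown on it for 7 days to take up compound via roots, then leaves cut into lid plate. Spodoptera eggs applied on humid blotting paper; mortality scored 6 days after infestation.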

[7] = system: Tetranychus urticae (Two-Spotted Spider Mite); assay: Example B21: Tetranychus urticae, sprayed bean leaf discs, mortality; conditions: foliar, 192 h, application rate of 200 ppm, mixed population (mobile stages), 8 days after infestation
Experimental: as §1, with “Bean leaf discs” for “Soybean leaves”, “leaf discs” for “leaves”, “a mite population of mixed ages.” for “N2 nymphs.”, “on mixed population (mobile stages) 8” for “5”

CCS(=O)(=O)c1cc(C(C#N)CCBr)cnc1-c1cn2cnc(C(F)(F)F)cc2n1 (stereo not shown) [Compound P13, 4-bromo-2-[5-ethylsulfonyl-6-[7-(trifluoromethyl)imidazo[1,2-c]pyrimidin-2-yl]-3-pyridyl]butanenitrile]
≥ 80%: mortality at 200 ppm [1] | mortality at 200 ppm [2] | mortality at 200 ppm [3] | mortality at 200 ppm [4] | percent control (mortality, anti-feedant effect or growth inhibition) at 200 ppm [5] | mortality at 12.5 ppm [6] | mortality at 200 ppm [7]
